The subject of experiment [1] is NF-κB phosphorylation in DC2.4 cells. Nature of the experiment: NF-κB phosphorylation in DC2.4 dendritic cells (flow cytometry). The format is cell-based, murine. As for the experimental part:
(§1) Prior to prepping cells, the cone-and-plate was incubated with 5% bovine serum albumin (BSA) for 1 h in order to block non-specific binding. DC2.4 cells were lifted with trypsin, washed, and resuspended in complete RMPI media at 200,000 cells/mL. Cells were placed on a rotator for static conditions. For shear conditions, an FSS of 5.0 dyn/cm^2 was applied for 1 h using cone-and-plate flow device. Static and shear conditions were either left untreated or treated with lipopolysaccharide (LPS) potent stimulator at 10 μg/mL.
(§2) Flow cytometry analysis and antibody staining: Following FSS stimulation, cells were plated overnight or immediately prepped for flow cytometry analysis. For intracellular proteins such as NF-κB and AP-1, cells were fixed with 4% paraformaldehyde for 10 min. Cells were washed with HBSS and permeabilized with 100% ice cold methanol. Cells were washed again and stained for 15 min in the dark with antibodies fluorescently-labeled with PE fluorophore while suspended in 1% BSA. Guava easyCyte 5HT flow cytometer was used to measure fluorescent intensity, with FloJo software used for gating and analysis. For extracellular proteins analyzed after 24 h, cells were lifted with trypsin, washed, and incubated with fluorescently-labeled antibodies in 1% BSA and then washed a final time.
(§3) Inhibition of NF-κB: NF-κB was inhibited using caffeic acid phenethyl ester (CAPE). DC2.4 cells were lifted, washed and suspended in 200,000 cells/mL complete media. 1 μL of CAPE was added to this suspension. Cells were placed on a rotator for 30 min to allow for effective inhibition, and then added to the cone-and-plate viscometer for FSS stimulation. Following FSS, NF-κB phosphorylation analysis was performed after 1 h FSS. Following stimulation, 100,000 cells were plated overnight for cytokine analysis and 100,000 cells were immediately analyzed for NF-κB phosphorylation. NF-κB and cytokine assays were performed as described previously.
GsMTx4: GsMTx-4 (ab141871) was purchased from Abcam. […] Following FSS, cells were prepared and analyzed for NF-κB phosphorylation as previously described. […]
A general note: A flow cytometer gives signals particle by particle.

Experiment [2] relates to DC2.4 cells. Nature of the experiment: Intracellular cytokine staining of DC2.4 cells after 24 h (IL-6, IL-12, CCR7). The format is cell-based, murine. As for the experimental part:
as §1
Cytokine staining: For intracellular cytokine staining (ICS), cells were plated overnight following FSS stimulation. After 24 h, cells were treated with 1:1000 GolgiPlug Transport Inhibitor to block cytokine secretion. After 4 h, cells were lifted and stained following the previously described protocol for staining intracellular proteins. IL-6, IL-12 and CCR7 were investigated in this study.
as §3

Experiment [3] deals with ZAP70 phosphorylation in Jurkat cells. The experiment in a line: ZAP70 phosphorylation of Jurkat cells treated with FSS and CD3/CD28 antibodies (flow cytometry). The format is cell-based, human. As for the experimental part:
T cell activation by FSS: Jurkat or primary T cells were collected and resuspended at a concentration of 200,000 cells/mL in complete RPMI 1640 media. The cells were treated with or without functional grade antibodies targeting CD3 (OKT3) and CD28 (CD28.2) at a concentration of 2 μg/mL for both antibodies. The T cells were then loaded into a Brookfield cone-and-plate viscometer for FSS treatment as described previously in Mitchell & King (Mitchell, M. J. et al. New J. Phys. 2013 15:015008). In a cone-and-plate viscometer the FSS magnitude is equal in all radial locations of the viscometer. The shear rate (G) is defined by the equation:
τ=μG • where μ is the viscosity (cP) of the fluid. In these experiments, viscosity was approximately 2.5 cP. Before FSS treatment, the cone-and-plate viscometer was cleaned thoroughly with 70% ethanol. The stationary plate and the rotating cone were then incubated with 5% BSA for 1 h to block nonspecific adhesion. The cells were exposed to fluid shear stress ranging from 0.5-5.0 dyn/cm^2 for times ranging from 15 to 60 min. Primarily, the cells were treated with FSS of magnitude 5.0 dyn/cm^2 for 1 h.
Where indicated, Jurkat cells were pretreated with different compounds prior to antibody and FSS treatment. The Jurkat cells were incubated with either 5 μM Cyclosporin A (CSA), 10 μM Cytochalasin D (CCD), 10 μM GsMTx-4, or 2 mM EGTA 30 min prior to antibody and FSS treatment.
Flow cytometry antibody staining: When staining for intracellular proteins, the cells were immediately fixed with 4% paraformaldehyde for 10 min. The cells were washed thoroughly and permeabilized with 100% ice cold methanol for 10 min. After washing the cells, the cells were stained with the indicated fluorescent-tagged antibodies for 15 min in 1% BSA. The fluorescence of each sample was measured using a Gauva easyCyte 5HT flow cytometer. Gating was performed using FlowJo software. For Jurkat samples, debris was gated out and fluorescence was quantified using FlowJo software.

The test system of experiment [4] is DC2.4 cells. Nature of the experiment: Costimulatory molecule expression in DC2.4 cells 24 h after stimulation. Format: cell-based, murine. To be noted: 10 μg/mL LPS, 24 h after 1 h stimulation, regardless of shear stress. How it is done:
as §1, §2

Setting [5] is: after CAPE treatment and FSS, 24 h.
Setting [6] is: Jurkat cells pretreated 10 μM 30 min prior to FSS and antibody treatment, compared to FSS and antibodies without the inhibitor.

On to `O=C(/C=C/c1ccc(O)c(O)c1)OCCc1ccccc1` [CAPE, caffeic acid phenethyl ester], for which the “NF-κB phosphorylation compared to untreated cells” value in experiment [1] (DC2.4 cells, CAPE 30 min before 1 h FSS) is “significant reduction”. In the experiment on DC2.4 cells [2] (setting [5]), the CCR7 production result is listed as “strong trend in the reduction”, the IL-6 production result is reported as “strong trend in the reduction” and the IL-12 release result is listed as “significant reduction”.

As for `C=C1[C@@H](C)[C@H]2[C@H](Cc3ccccc3)NC(=O)[C@]23[C@H](OC(C)=O)/C=C/[C@@](C)(O)C(=O)[C@@H](C)C/C=C/[C@H]3[C@@H]1O` [CCD, Cytochalasin D], in experiment [3] (Jurkat cells pretreated 10 μM 30 min, antibody-only, no FSS), the “ZAP70 phosphorylation (activation), antibody-only condition” value was “not significantly altering”. Further, the ZAP70 phosphorylation result in experiment [3] (setting [6]) was “significantly reduced”.

For the compound `O=C(O)CN(CCOCCOCCN(CC(=O)O)CC(=O)O)CC(=O)O` [EGTA], the ZAP70 phosphorylation result in experiment [3] (Jurkat cells pretreated 2 mM for 30 min, then FSS and antibodies, compared to FSS and antibodies only) is listed as “significant reduction”.

As for GsMTx-4, in experiment [3] (setting [6]), the ZAP70 phosphorylation entry is listed as “significant reduction”. Also, the NF-κB phosphorylation result in experiment [1] (DC2.4 cells incubated with 10 μmol GsMTx4, FSS, two replicates) is reported as “reduced”.

In the case of lipopolysaccharide [LPS], the “NF-κB phosphorylation, FSS with LPS versus FSS without LPS” value in experiment [1] (DC2.4 cells, 10 μg/mL LPS, 5.0 dyn/cm^2 FSS, 1 h) is recorded as “no significant difference”. In the experiment on DC2.4 cells [4], the “CD40 costimulatory molecule expression enhanced in the presence of LPS” value is on record as “significant” and the “CD80 costimulatory molecule expression enhanced in the presence of LPS” value was “trend”. For the same compound, the “release of IL-6, IL-12 and CCR7, FSS versus FSS with LPS” value in the experiment with DC2.4 cells [2] (10 μg/mL LPS, 24 h after 1 h 5.0 dyn/cm^2 FSS) is on record as “not a significant difference”.

(Values after US20240327792A1, “FLUID SHEAR STRESS FOR EX VIVO ACTIVATION OF IMMUNE EFFECTOR CELLS” (Vanderbilt University, priority 2021, published 2024).)
